Key:
Caspase-6 (Homo sapiens) = target: T1, Caspase-6 (Homo sapiens) (UniProt P55212); assay: Inhibitory activity against Caspase-6
T1 sequence (whole entry): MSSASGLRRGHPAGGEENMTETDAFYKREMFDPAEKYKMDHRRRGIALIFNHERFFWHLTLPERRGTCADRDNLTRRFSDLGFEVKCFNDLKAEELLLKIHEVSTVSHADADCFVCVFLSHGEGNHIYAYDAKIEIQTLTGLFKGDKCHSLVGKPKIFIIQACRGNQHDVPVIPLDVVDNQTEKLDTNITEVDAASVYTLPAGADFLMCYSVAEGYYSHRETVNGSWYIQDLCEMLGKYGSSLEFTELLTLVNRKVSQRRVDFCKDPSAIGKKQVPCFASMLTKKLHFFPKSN

Caspase-3 (Homo sapiens) = target: T2, Caspase-3 (Homo sapiens) (UniProt P42574); assay: Inhibitory activity against Caspase-3
T2 sequence (whole entry): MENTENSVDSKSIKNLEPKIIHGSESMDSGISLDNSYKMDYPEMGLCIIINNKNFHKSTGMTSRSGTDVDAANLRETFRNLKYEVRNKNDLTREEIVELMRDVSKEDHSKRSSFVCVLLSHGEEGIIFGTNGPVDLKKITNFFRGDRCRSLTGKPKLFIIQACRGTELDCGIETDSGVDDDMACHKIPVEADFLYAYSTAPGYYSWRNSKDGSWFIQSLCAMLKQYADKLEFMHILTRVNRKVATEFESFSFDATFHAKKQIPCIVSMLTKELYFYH

Caspase-1 (Mus musculus) = target: T3, Caspase-1 (Mus musculus) (UniProt P29452); assay: Inhibitory activity against murine Caspase-1
T3 sequence (whole entry): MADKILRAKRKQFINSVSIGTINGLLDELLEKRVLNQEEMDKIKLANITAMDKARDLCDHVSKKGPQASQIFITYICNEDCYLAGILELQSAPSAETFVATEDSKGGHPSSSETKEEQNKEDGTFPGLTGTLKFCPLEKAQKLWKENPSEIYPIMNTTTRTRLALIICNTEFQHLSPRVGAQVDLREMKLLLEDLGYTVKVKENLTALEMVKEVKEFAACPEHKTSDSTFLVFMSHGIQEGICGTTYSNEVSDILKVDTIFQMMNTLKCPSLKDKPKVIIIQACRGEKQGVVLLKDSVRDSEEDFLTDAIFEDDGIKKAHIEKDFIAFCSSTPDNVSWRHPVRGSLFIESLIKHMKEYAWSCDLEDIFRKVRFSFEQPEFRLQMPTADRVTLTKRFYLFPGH

Caspase-8 (Homo sapiens) = Caspase-8 (Homo sapiens) (UniProt Q14790); assay: Inhibitory activity against Caspase-8
THP-1 = assay: Inhibitory concentration against THP-1 cells; type: functional, cell-based; conditions: Homo sapiens
Jurkat = assay: Inhibitory concentration against JFas cells; type: functional, cell-based; conditions: Homo sapiens
Mus musculus [1] = assay: Effective dose required for pancaspase inhibition in a-Fas liver upon i.p. administration; conditions: ip
Mus musculus [2] = assay: Effective dose required for pancaspase inhibition in a-Fas liver upon i.p. administration; range = 0.06-0.12; conditions: ip
Rattus norvegicus = assay: Effective dose required for pancaspase inhibition in a-Fas liver after an i.p. administration; type: functional; conditions: ip

Sequence of Caspase-8 (Homo sapiens) (Q14790 217-374 limits assumed): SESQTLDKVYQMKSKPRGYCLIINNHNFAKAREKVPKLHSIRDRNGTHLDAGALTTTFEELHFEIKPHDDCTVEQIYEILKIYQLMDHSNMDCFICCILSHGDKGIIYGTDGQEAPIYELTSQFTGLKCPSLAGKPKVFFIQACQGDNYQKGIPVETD
Sequence of Caspase-8 (Homo sapiens) (Q14790 385-479 limits assumed): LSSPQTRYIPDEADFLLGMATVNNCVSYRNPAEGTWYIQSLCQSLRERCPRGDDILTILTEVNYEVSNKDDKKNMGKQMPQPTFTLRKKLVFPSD

SMILES | k3/Ki (Caspase-6 (Homo sapiens)) [M⁻¹ s⁻¹] | k3/Ki (Caspase-3 (Homo sapiens)) [M⁻¹ s⁻¹] | k3/Ki (Caspase-1 (Mus musculus)) [M⁻¹ s⁻¹] | k3/Ki (Caspase-8 (Homo sapiens)) [M⁻¹ s⁻¹] | IC50 (THP-1) [µM] | IC50 (Jurkat) [µM] | ED50 (Mus musculus [1]) [mg/kg] | ED50 (Mus musculus [2]) [mg/kg] | ED50 (Rattus norvegicus) [mg/kg]
C[C@H](NC(=O)C(=O)Nc1ccccc1C(C)(C)C)C(=O)N[C@@H](CC(=O)O)C(=O)COC(=O)c1c(Cl)cccc1Cl | 105000 | 236000 | 8.33e+06 | 4300 | 11.8 | 0.143 | 45.8 |  | 
C[C@H](NC(=O)C(=O)Nc1ccccc1-c1ccc[nH]1)C(=O)N[C@@H](CC(=O)O)C(=O)COc1c(F)c(F)cc(F)c1F | 7750 | 12000 | 1.52e+06 | 1.2e+06 | > 32 | 0.056 |  |  | 
C[C@H](NC(=O)C(=O)Nc1ccccc1C(C)(C)C)C(=O)N[C@@H](CC(=O)O)C(=O)COP(=O)(c1ccccc1)c1ccccc1 | 52100 | 99100 | 2.16e+06 | 2.01e+06 | 9.09 | 0.081 | 0.14 |  | 
C[C@H](NC(=O)C(=O)Nc1cc(C(C)(C)C)ccc1C(C)(C)C)C(=O)N[C@@H](CC(=O)O)C(=O)COC(=O)c1c(Cl)cccc1Cl | 6400 | 30000 | 4.02e+06 | 68 | 3.13 | 1.38 |  |  | 
C[C@H](NC(=O)C(=O)Nc1ccccc1Cc1ccccc1)C(=O)N[C@@H](CC(=O)O)C(=O)COc1c(F)c(F)cc(F)c1F | 33600 | 44400 | 1.97e+06 | 617000 | 0.54 | 0.01 |  |  | 
C[C@H](NC(=O)C(=O)Nc1ccccc1-c1ccccc1)C(=O)N[C@@H](CC(=O)O)C(=O)COP(=O)(c1ccccc1)c1ccccc1 | 22700 | 28400 | 5e+06 | 1.57e+06 | 4.12 | 3.94 |  |  | 0.44

Stronger by IC50 (THP-1), values ahead:

k3/Ki (Caspase-6 (Homo sapiens)) [M⁻¹ s⁻¹] | k3/Ki (Caspase-3 (Homo sapiens)) [M⁻¹ s⁻¹] | k3/Ki (Caspase-1 (Mus musculus)) [M⁻¹ s⁻¹] | k3/Ki (Caspase-8 (Homo sapiens)) [M⁻¹ s⁻¹] | IC50 (THP-1) [µM] | IC50 (Jurkat) [µM] | SMILES | ED50 (Mus musculus [1]) [mg/kg] | ED50 (Mus musculus [2]) [mg/kg] | ED50 (Rattus norvegicus) [mg/kg]
268 | 21000 | 390000 | 2800 | 0.5 | 0.15 | C[C@H](NC(=O)C(=O)NC1CCCCC1)C(=O)N[C@@H](CC(=O)O)C(=O)COc1c(F)c(F)cc(F)c1F |  |  | 
45600 | 309000 | 9.95e+06 | 332000 | 0.19 | 0.061 | C[C@H](NC(=O)C(=O)Nc1ccccc1C(F)(F)F)C(=O)N[C@@H](CC(=O)O)C(=O)COc1c(F)c(F)cc(F)c1F |  |  | 
18500 | 57000 | 1.7e+06 | 460000 | 0.06 | 0.086 | C[C@H](NC(=O)C(=O)Nc1cccc2ccccc12)C(=O)N[C@@H](CC(=O)O)C(=O)COc1c(F)c(F)cc(F)c1F |  |  | 
58700 | 75700 | 689000 | 2.94e+06 | 0.27 | 0.025 | C[C@H](NC(=O)C(=O)Nc1ccccc1C(C)(C)C)C(=O)N[C@@H](CC(=O)O)C(=O)COc1c(F)c(F)cc(F)c1F [EMRICASAN] |  | 0.08 | 
19800 | 70000 | 1.14e+06 | 114000 | 0.16 | 0.16 | C[C@H](NC(=O)C(=O)Nc1ccccc1F)C(=O)N[C@@H](CC(=O)O)C(=O)COc1c(F)c(F)cc(F)c1F |  |  | 
23700 | 44000 | 468000 | 201000 | 0.2 | 1.04 | C[C@H](NC(=O)C(=O)Nc1ccccn1)C(=O)N[C@@H](CC(=O)O)C(=O)COc1c(F)c(F)cc(F)c1F |  |  | 
44000 | 256000 | 8.31e+06 | 109 | 0.32 | 1.17 | C[C@H](NC(=O)C(=O)Nc1ccccc1Cl)C(=O)N[C@@H](CC(=O)O)C(=O)COC(=O)c1c(Cl)cccc1Cl |  |  | 
